Test results taken from the SangsterLogP compilation.

SMILES | logP
CCOP(=S)(Oc1ccc(Cl)cc1Cl)SCC(=O)N(CC)c1ccc(C)cc1 (stereo not given) | 2.82
CCCN(C(=O)CCl)c1ccc(Cl)cc1 | 3.62
C=CCN(C(=O)CSP(=S)(OC)OC)c1ccccc1C | 2.93
CCOC(=O)[C@H](C)N(C(=O)CCl)c1ccc(Cl)cc1 | 2.75
CCN(C(=O)CSP(=S)(OC)OC)c1ccccc1C | 2.82
CCOC(=O)C(C)N(C(=O)CSP(=S)(OC)OC)c1ccc(Cl)cc1 (stereo not given) | 2.75
COP(=S)(OC)SCC(=O)N(Cc1ccccc1)c1ccc(Cl)cc1 | 4.09
CCOC(=O)CN(C(=O)CCl)c1cccc(Cl)c1 | 2.42
C=CCN(C(=O)CCl)c1ccc(Cl)cc1 | 3.19
C=CCN(C(=O)CCl)c1cccc(Cl)c1 | 3.38
CCN(C(=O)CSP(=S)(OC)OC)c1ccccc1 | 2.26
C=CCN(C(=O)CSP(=S)(OC)OC)c1ccc(C)cc1 | 2.92
CCOC(=O)C(C)N(C(=O)CSP(=S)(OC)OC)c1ccccc1 (stereo not given) | 1.79
CCOC(=O)CN(C(=O)CSP(=S)(OC)OC)c1ccccc1Cl | 2.42
O=C(CCl)N(Cc1ccccc1)c1ccccc1 | 3.13
CCOP(=S)(Oc1ccc(Cl)cc1Cl)SCC(=O)N(CC)c1ccccc1C (stereo not given) | 2.82
O=C(CCl)N(Cc1ccccc1)c1cccc(Cl)c1 | 4.28
CCN(C(=O)CCl)c1ccccc1C | 2.82
CCOC(=O)[C@H](C)N(C(=O)CCl)c1ccccc1 | 1.79
O=C(CCl)N(Cc1ccccc1)c1ccc(Cl)cc1 | 4.09
CCOC(=O)CN(C(=O)CSP(=S)(OC)OC)c1ccc(Cl)cc1 | 2.15
COP(=S)(OC)SCC(=O)N(Cc1ccccc1)c1ccccc1 | 3.13
C=CCN(C(=O)CCl)c1ccc(C)cc1 | 2.92
CCN(C(=O)CSP(=S)(OC)OC)c1ccc(C)cc1 | 2.81
CCOC(=O)CN(C(=O)CSP(=S)(OC)OC)c1ccccc1 | 1.19
CCOC(=O)CN(C(=O)CCl)c1ccc(Cl)cc1 | 2.15
CCN(C(=O)CCl)c1ccccc1 | 2.26
COP(=S)(OC)SCC(=O)N(c1ccccc1)C(C)C | 2.5
C=CCN(C(=O)CSP(=S)(OC)OC)c1ccc(Cl)cc1 | 3.19
CCOC(=O)C(C)N(C(=O)CSP(=S)(OC)OC)c1cccc(Cl)c1 (stereo not given) | 3.68
